What was measured:
Conditions in all cases: 48 h
SEM cells [1] = assay: AUC of viability dose-response curve (% viability x log10 dose units); higher = less sensitive
Outline: (§1)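 Over 48 h at 37°C, leukemia cells in 1536-well plates (500 or 1000 cells/well), adapted to each medium, received library compounds in DMSO at 11 threefold doses from 47 μM to 0.79 nM. CellTiter-Glo One luminescence, normalised per plate to DMSO and cell-free wells, was fitted by a four-parameter log-logistic function of log10 dose. The area under the curve was then integrated by trapezoidal rule, after scaling curves above full viability and removing those that failed quality control.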

NOMO1 [2] = assay: as above
Outline: as §1

P12-Ichikawa [3] = assay: as above
Outline: as §1

SEM cells [4] = assay: cell viability relative to DMSO control; higher = less cytotoxic
Outline: (§2)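 Leukemia cells (NOMO1 or SEM, 500 cells/well; P12-Ichikawa, 1000 cells/well) were seeded in 5 μl in 1536-well plates after at least four passages of adaptation to each medium. They received library compounds in DMSO by pin dosing, 11 threefold points from 47 μM to 0.79 nM. Luminescence with CellTiter-Glo One was read after 48 h at 37°C. Viability is stated per plate relative to DMSO wells, with cell-free wells as background.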

NOMO1 [5] = assay: as above
Outline: as §2

P12-Ichikawa [6] = assay: as above
Outline: as §2

N#C[C@@H]1C[C@@H]2C[C@@H]2N1C(=O)[C@@H](N)C12CC3CC(CC(O)(C3)C1)C2
AUC of viability dose-response curve
Conditions | NOMO1 [2] | P12-Ichikawa [3] | SEM cells [1]
HPLM + 10% dialyzed FBS | 400 | 462 | 465
RPMI 5 mM glucose + 10% FBS | 466 | 433 | 426
RPMI 5 mM glucose + 10% dialyzed FBS | 450 | 451 | 455

cell viability [%]
Conditions | NOMO1 [5] | P12-Ichikawa [6] | SEM cells [4]
HPLM + 10% dialyzed FBS, 0.000781 µM | 139 | 121 | –
HPLM + 10% dialyzed FBS, 0.00234 µM | 118 | 123 | –
HPLM + 10% dialyzed FBS, 0.00702 µM | 124 | 115 | –
HPLM + 10% dialyzed FBS, 0.0211 µM | 134 | 122 | –
HPLM + 10% dialyzed FBS, 0.0632 µM | 129 | 122 | –
HPLM + 10% dialyzed FBS, 0.19 µM | 129 | 114 | –
HPLM + 10% dialyzed FBS, 0.569 µM | 127 | 122 | –
HPLM + 10% dialyzed FBS, 1.71 µM | 106 | 110 | –
HPLM + 10% dialyzed FBS, 5.12 µM | 96.6 | 109 | –
HPLM + 10% dialyzed FBS, 15.4 µM | 32.2 | 110 | –
HPLM + 10% dialyzed FBS, 46.1 µM | 5.88 | 108 | –
RPMI 5 mM glucose + 10% FBS, 0.000781 µM | 120 | 132 | 113
RPMI 5 mM glucose + 10% FBS, 0.00234 µM | 109 | 123 | 109
RPMI 5 mM glucose + 10% FBS, 0.00702 µM | 118 | 120 | 105
RPMI 5 mM glucose + 10% FBS, 0.0211 µM | 124 | 120 | 104
RPMI 5 mM glucose + 10% FBS, 0.0632 µM | 109 | 116 | 108
RPMI 5 mM glucose + 10% FBS, 0.19 µM | 116 | 123 | 96.6
RPMI 5 mM glucose + 10% FBS, 0.569 µM | 111 | 128 | 102
RPMI 5 mM glucose + 10% FBS, 1.71 µM | 110 | 107 | 87.5
RPMI 5 mM glucose + 10% FBS, 5.12 µM | 113 | 111 | 79
RPMI 5 mM glucose + 10% FBS, 15.4 µM | 112 | 110 | 82.2
RPMI 5 mM glucose + 10% FBS, 46.1 µM | 67.3 | 97.6 | 79.4
RPMI 5 mM glucose + 10% dialyzed FBS, 0.000781 µM | 122 | 122 | 118
RPMI 5 mM glucose + 10% dialyzed FBS, 0.00234 µM | 125 | 128 | 115
RPMI 5 mM glucose + 10% dialyzed FBS, 0.00702 µM | 106 | 121 | 110
RPMI 5 mM glucose + 10% dialyzed FBS, 0.0211 µM | 125 | 118 | 110
RPMI 5 mM glucose + 10% dialyzed FBS, 0.0632 µM | 131 | 124 | 111
RPMI 5 mM glucose + 10% dialyzed FBS, 0.19 µM | 123 | 114 | 110
RPMI 5 mM glucose + 10% dialyzed FBS, 0.569 µM | 132 | 121 | 115
RPMI 5 mM glucose + 10% dialyzed FBS, 1.71 µM | 122 | 123 | 108
RPMI 5 mM glucose + 10% dialyzed FBS, 5.12 µM | 118 | 112 | 108
RPMI 5 mM glucose + 10% dialyzed FBS, 15.4 µM | 97.9 | 111 | 117
RPMI 5 mM glucose + 10% dialyzed FBS, 46.1 µM | 44.6 | 108 | 94.5

OC[C@H]1O[C@H](C[C@@H]1O)N2\C=C(\I)C(=O)NC2=O
AUC of viability dose-response curve
Conditions | NOMO1 [2] | P12-Ichikawa [3] | SEM cells [1]
HPLM + 10% dialyzed FBS | 456 | 435 | 452
RPMI 5 mM glucose + 10% FBS | 470 | 462 | 454
RPMI 5 mM glucose + 10% dialyzed FBS | 446 | 472 | 386

cell viability [%]
Conditions | NOMO1 [5] | P12-Ichikawa [6] | SEM cells [4]
HPLM + 10% dialyzed FBS, 0.000781 µM | 107 | 113 | 86.1
HPLM + 10% dialyzed FBS, 0.00234 µM | 118 | 114 | 99.2
HPLM + 10% dialyzed FBS, 0.00702 µM | 105 | 120 | 97.3
HPLM + 10% dialyzed FBS, 0.0211 µM | 126 | 118 | 93
HPLM + 10% dialyzed FBS, 0.0632 µM | 116 | 115 | 99
HPLM + 10% dialyzed FBS, 0.19 µM | 113 | 124 | 113
HPLM + 10% dialyzed FBS, 0.569 µM | 114 | 119 | 117
HPLM + 10% dialyzed FBS, 1.71 µM | 125 | 115 | 88.2
HPLM + 10% dialyzed FBS, 5.12 µM | 105 | 98.2 | 95.3
HPLM + 10% dialyzed FBS, 15.4 µM | 91.3 | 64.4 | 74.7
HPLM + 10% dialyzed FBS, 46.1 µM | 79.2 | 58.3 | 69.6
RPMI 5 mM glucose + 10% FBS, 0.000781 µM | 112 | 110 | 97.1
RPMI 5 mM glucose + 10% FBS, 0.00234 µM | 120 | 114 | 110
RPMI 5 mM glucose + 10% FBS, 0.00702 µM | 110 | 124 | 104
RPMI 5 mM glucose + 10% FBS, 0.0211 µM | 113 | 121 | 107
RPMI 5 mM glucose + 10% FBS, 0.0632 µM | 120 | 129 | 102
RPMI 5 mM glucose + 10% FBS, 0.19 µM | 116 | 128 | 113
RPMI 5 mM glucose + 10% FBS, 0.569 µM | 127 | 132 | 101
RPMI 5 mM glucose + 10% FBS, 1.71 µM | 119 | 123 | 110
RPMI 5 mM glucose + 10% FBS, 5.12 µM | 129 | 115 | 101
RPMI 5 mM glucose + 10% FBS, 15.4 µM | 115 | 106 | 77.8
RPMI 5 mM glucose + 10% FBS, 46.1 µM | 88.6 | 96.7 | 66.5
RPMI 5 mM glucose + 10% dialyzed FBS, 0.000781 µM | 103 | 118 | 90.9
RPMI 5 mM glucose + 10% dialyzed FBS, 0.00234 µM | 118 | 114 | 92.5
RPMI 5 mM glucose + 10% dialyzed FBS, 0.00702 µM | 114 | 108 | 92
RPMI 5 mM glucose + 10% dialyzed FBS, 0.0211 µM | 117 | 119 | 99.9
RPMI 5 mM glucose + 10% dialyzed FBS, 0.0632 µM | 132 | 114 | 98.4
RPMI 5 mM glucose + 10% dialyzed FBS, 0.19 µM | 117 | 131 | 109
RPMI 5 mM glucose + 10% dialyzed FBS, 0.569 µM | 133 | 127 | 84.3
RPMI 5 mM glucose + 10% dialyzed FBS, 1.71 µM | 104 | 115 | 64.3
RPMI 5 mM glucose + 10% dialyzed FBS, 5.12 µM | 97.1 | 114 | 60
RPMI 5 mM glucose + 10% dialyzed FBS, 15.4 µM | 98.5 | 114 | 49.2
RPMI 5 mM glucose + 10% dialyzed FBS, 46.1 µM | 86.2 | 110 | 39.4
